Experimental data as given in patent publication US12012409B2, “Bicyclic heterocycles as FGFR inhibitors” (Incyte Corporation, priority 2020, dated 2024).

Assays:
Assay type in all cases: biochemical
Settings in all cases: wild-type un-phosphorylated protein; pre-incubated for 4 hours; ATP near or below Km
[1] = molecular target: wild-type un-phosphorylated FGFR1 (Homo sapiens, UniProt P11362); experiment: FGFR Enzymatic Assay (FRET peptide phosphorylation), FGFR1
Description: (§1) The inhibitor potency of the exemplified compounds was determined in an enzyme discontinuous assay that measures peptide phosphorylation using FRET measurements to detect product formation. Inhibitors were serially diluted in DMSO and a volume of 0.2 μL was transferred to the wells of a 384-well plate. […] Appropriate controls (enzyme blank and enzyme with no inhibitor) were included on the plate. […] The ATP Km values were pre-determined in a separate series of experiments. […] The plate was allowed to equilibrate for ˜10 minutes at ambient temperature before scanning on a PheraStar plate reader (BMG Labtech) instrument.
(§2) Either GraphPad prism or XLfit was used to analyze the data. The IC50 values were derived by fitting the data to a four parameter logistic equation producing a sigmoidal dose-response curve with a variable Hill coefficient. Prism equation: Y=Bottom+(Top−Bottom)/(1+10^((LogIC50−X)*Hill slope)); XLfit equation: Y=(A+((B−A)/(1+((X/C)^D)))) where X is the logarithm of inhibitor concentration and Y is the response.

[2] = molecular target: wild-type un-phosphorylated FGFR3 (Homo sapiens, UniProt P22607); experiment: FGFR Enzymatic Assay (FRET peptide phosphorylation), FGFR3
Chain of wild-type un-phosphorylated FGFR3 (P22607 23-806): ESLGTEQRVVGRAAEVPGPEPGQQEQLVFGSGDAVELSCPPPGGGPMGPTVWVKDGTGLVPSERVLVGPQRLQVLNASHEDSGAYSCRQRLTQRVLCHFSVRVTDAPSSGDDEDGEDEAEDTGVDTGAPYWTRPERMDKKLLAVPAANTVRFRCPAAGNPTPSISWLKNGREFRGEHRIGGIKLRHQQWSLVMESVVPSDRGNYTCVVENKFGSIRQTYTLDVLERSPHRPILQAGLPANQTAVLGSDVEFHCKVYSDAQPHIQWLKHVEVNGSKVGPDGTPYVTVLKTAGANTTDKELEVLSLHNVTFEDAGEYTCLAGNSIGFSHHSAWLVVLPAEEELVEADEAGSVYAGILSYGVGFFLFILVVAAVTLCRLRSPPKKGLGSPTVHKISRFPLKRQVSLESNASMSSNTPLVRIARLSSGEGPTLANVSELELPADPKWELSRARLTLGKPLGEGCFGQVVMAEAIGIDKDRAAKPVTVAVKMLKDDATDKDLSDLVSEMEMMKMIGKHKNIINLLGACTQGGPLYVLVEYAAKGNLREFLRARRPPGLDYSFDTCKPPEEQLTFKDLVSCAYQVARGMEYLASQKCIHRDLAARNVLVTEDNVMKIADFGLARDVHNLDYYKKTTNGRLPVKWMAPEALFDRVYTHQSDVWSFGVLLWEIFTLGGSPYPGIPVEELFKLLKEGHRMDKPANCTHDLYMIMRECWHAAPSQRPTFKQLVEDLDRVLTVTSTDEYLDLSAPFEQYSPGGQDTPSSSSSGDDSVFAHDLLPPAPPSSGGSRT
Description: as §1, §2

[3] = molecular target: wild-type un-phosphorylated FGFR2 (Homo sapiens, UniProt P21802); experiment: FGFR Enzymatic Assay (FRET peptide phosphorylation), FGFR2
Chain of wild-type un-phosphorylated FGFR2 (P21802 22-821): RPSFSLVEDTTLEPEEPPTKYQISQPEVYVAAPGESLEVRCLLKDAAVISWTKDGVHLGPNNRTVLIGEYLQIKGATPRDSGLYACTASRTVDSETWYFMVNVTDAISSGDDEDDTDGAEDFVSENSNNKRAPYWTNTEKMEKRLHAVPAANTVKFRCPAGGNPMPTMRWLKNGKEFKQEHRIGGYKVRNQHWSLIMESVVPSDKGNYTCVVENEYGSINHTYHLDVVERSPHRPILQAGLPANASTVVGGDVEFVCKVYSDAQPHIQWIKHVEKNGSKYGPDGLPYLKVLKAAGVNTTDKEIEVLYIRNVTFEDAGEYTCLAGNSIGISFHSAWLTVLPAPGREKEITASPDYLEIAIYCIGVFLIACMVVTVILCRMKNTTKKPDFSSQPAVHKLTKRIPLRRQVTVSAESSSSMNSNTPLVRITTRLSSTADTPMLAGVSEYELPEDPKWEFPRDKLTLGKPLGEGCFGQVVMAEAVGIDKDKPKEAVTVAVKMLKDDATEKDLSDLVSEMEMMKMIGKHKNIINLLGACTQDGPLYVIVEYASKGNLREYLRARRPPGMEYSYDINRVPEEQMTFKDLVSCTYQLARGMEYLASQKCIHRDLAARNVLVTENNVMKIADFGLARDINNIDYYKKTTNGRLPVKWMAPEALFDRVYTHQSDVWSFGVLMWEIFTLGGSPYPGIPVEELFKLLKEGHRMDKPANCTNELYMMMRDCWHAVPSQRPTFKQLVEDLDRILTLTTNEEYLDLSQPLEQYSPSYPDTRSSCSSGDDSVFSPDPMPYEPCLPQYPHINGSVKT
Description: as §1, §2
The data in Table 1 was measured in wild-type un-phosphorylated FGFR1, FGFR2, FGFR3 and FGFR4 protein.

Chain of wild-type un-phosphorylated FGFR1 (P11362 22-822): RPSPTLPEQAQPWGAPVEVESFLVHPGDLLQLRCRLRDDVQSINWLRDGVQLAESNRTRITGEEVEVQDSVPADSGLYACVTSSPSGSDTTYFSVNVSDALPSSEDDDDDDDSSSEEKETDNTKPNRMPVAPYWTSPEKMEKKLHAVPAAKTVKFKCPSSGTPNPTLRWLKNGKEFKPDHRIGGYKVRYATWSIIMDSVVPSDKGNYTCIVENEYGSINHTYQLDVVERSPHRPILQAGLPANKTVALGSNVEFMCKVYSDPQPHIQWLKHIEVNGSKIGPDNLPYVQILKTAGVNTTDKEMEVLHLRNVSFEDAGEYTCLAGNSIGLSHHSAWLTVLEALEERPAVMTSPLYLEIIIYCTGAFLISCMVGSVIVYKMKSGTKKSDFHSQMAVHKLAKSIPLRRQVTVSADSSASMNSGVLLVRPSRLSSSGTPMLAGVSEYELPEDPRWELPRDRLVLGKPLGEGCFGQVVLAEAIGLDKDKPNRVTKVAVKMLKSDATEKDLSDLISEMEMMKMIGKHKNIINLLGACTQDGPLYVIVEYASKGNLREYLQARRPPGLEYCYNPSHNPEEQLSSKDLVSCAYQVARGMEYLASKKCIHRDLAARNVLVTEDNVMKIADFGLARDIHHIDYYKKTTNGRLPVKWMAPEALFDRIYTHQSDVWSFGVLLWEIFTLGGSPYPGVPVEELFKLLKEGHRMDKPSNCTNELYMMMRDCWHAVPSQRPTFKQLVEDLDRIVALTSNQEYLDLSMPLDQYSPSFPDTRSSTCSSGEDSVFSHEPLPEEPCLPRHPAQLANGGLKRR

Row | SMILES | IC50 [1] | IC50 [2] | IC50 [3]
1 | CNC(=O)c1cc(F)c(F)c(-c2cnc3cc(-c4cnn(C)c4)c(O[C@H]4CCNC4)nn23)c1 [Example 17, (S)-3,4-Difluoro-N-methyl-5-(7-(1-methyl-1H-pyrazol-4-yl)-6-(pyrrolidin-3-yloxy)imidazo[1,2-b]pyridazin-3-yl)benzamide] | ≥ 0.4 µM | 0.01 to 0.1 µM | –
2 | CNC(=O)c1cc(F)c(F)c(-c2cnc3cc(-c4cnn(C5CCN(C(C)=O)CC5)c4)c(O[C@H]4CCOC4)nn23)c1 [Example 74, (S)-3-(7-(1-(1-Acetylpiperidin-4-yl)-1H-pyrazol-4-yl)-6-((tetrahydrofuran-3-yl)oxy)imidazo[1,2-b]pyridazin-3-yl)-4,5-difluoro-N-methylbenzamide] | < 0.01 µM | < 0.01 µM | < 0.01 µM
3 | COc1nn2c(-c3cc(C(=O)NCC(F)(F)F)ccc3F)cnc2cc1-c1cnn(C)c1 [Example 14, 4-Fluoro-3-(6-methoxy-7-(1-methyl-1H-pyrazol-4-yl)imidazo[1,2-b]pyridazin-3-yl)-N-(2,2,2-trifluoroethyl)benzamide] | 0.01 to 0.1 µM | 0.01 to 0.1 µM | –
4 | CNC(=O)c1cc(F)c(F)c(-c2cnc3cc(-c4cnn(C)c4)c(O[C@H]4CCOC4)nn23)c1 [Example 43, (S)-3,4-Difluoro-N-methyl-5-(7-(1-methyl-1H-pyrazol-4-yl)-6-((tetrahydrofuran-3-yl)oxy)imidazo[1,2-b]pyridazin-3-yl)benzamide] | – | – | < 0.01 µM
5 | CNC(=O)c1cc(F)c(F)c(-c2cnc3cc(-c4cnn(C)c4)c(O[C@H]4CCNC4=O)nn23)c1 [Example 18, (S)-3,4-Difluoro-N-methyl-5-(7-(1-methyl-1H-pyrazol-4-yl)-6-((2-oxopyrrolidin-3-yl)oxy)imidazo[1,2-b]pyridazin-3-yl)benzamide] | 0.01 to 0.1 µM | < 0.01 µM | –
6 | CNC(=O)c1cc(-c2cnc3cc(-c4cnn(C)c4)c(O[C@H]4CCOC4)nn23)c(F)c(N(C)C)c1 [Example 37, (S)-3-(Dimethylamino)-4-fluoro-N-methyl-5-(7-(1-methyl-1H-pyrazol-4-yl)-6-((tetrahydrofuran-3-yl)oxy)imidazo[1,2-b]pyridazin-3-yl)benzamide] | 0.1 to 0.4 µM | 0.01 to 0.1 µM | –
7 | COc1nn2c(-c3cccc(C(C)(C)O)c3)cnc2cc1-c1cnn(C)c1 [Example 9, 2-(3-(6-Methoxy-7-(1-methyl-1H-pyrazol-4-yl)imidazo[1,2-b]pyridazin-3-yl)phenyl)propan-2-ol] | 0.01 to 0.1 µM | 0.01 to 0.1 µM | –
8 | CNC(=O)c1ccc(OC)c(-c2cnc3cc(-c4cnn(C)c4)c(OC)nn23)c1 [Example 12, 4-Methoxy-3-(6-methoxy-7-(1-methyl-1H-pyrazol-4-yl)imidazo[1,2-b]pyridazin-3-yl)-N-methylbenzamide] | ≥ 0.4 µM | ≥ 0.4 µM | –
9 | CNC(=O)c1cccc(-c2cnc3cc(-c4cnn(C)c4)c(OC4CC(C#N)C4)nn23)c1 (stereo not drawn) [Example 56, 3-(6-(3-Cyanocyclobutoxy)-7-(1-methyl-1H-pyrazol-4-yl)imidazo[1,2-b]pyridazin-3-yl)-N-methylbenzamide] | 0.1 to 0.4 µM | 0.1 to 0.4 µM | –
10 | CNC(=O)c1cncc(-c2cnc3cc(-c4cnn(C)c4)c(OCC(F)F)nn23)c1 [Example 50, 5-(6-(2,2-Difluoroethoxy)-7-(1-methyl-1H-pyrazol-4-yl)imidazo[1,2-b]pyridazin-3-yl)-N-methylnicotinamide] | ≥ 0.4 µM | 0.01 to 0.1 µM | –
11 | Cn1cc(-c2cc3ncc(-c4ccc5cnn(C)c5c4)n3nc2OC2CCOC2)cn1 (stereo not drawn) [Example 65, 3-(1-Methyl-1H-indazol-6-yl)-7-(1-methyl-1H-pyrazol-4-yl)-6-((tetrahydrofuran-3-yl)oxy)imidazo[1,2-b]pyridazine] | ≥ 0.4 µM | 0.1 to 0.4 µM | –
12 | CNC(=O)c1cc(-c2cnc3cc(-c4cnn(C)c4)c(O[C@H]4CCOC4)nn23)c(F)c(C2CC2)c1 [Example 38, (S)-3-Cyclopropyl-4-fluoro-N-methyl-5-(7-(1-methyl-1H-pyrazol-4-yl)-6-((tetrahydrofuran-3-yl)oxy)imidazo[1,2-b]pyridazin-3-yl)benzamide] | 0.01 to 0.1 µM | < 0.01 µM | –
13 | COc1nn2c(-c3cccc(N4CCOCC4)c3)cnc2cc1-c1cnn(C)c1 [Example 6, 4-(3-(6-Methoxy-7-(1-methyl-1H-pyrazol-4-yl)imidazo[1,2-b]pyridazin-3-yl)phenyl)morpholine] | 0.1 to 0.4 µM | 0.1 to 0.4 µM | –
14 | CNC(=O)c1ccc(C#N)c(-c2cnc3cc(-c4cnn(C)c4)c(OC)nn23)c1 [Example 13, 4-Cyano-3-(6-methoxy-7-(1-methyl-1H-pyrazol-4-yl)imidazo[1,2-b]pyridazin-3-yl)-N-methylbenzamide] | ≥ 0.4 µM | ≥ 0.4 µM | –
15 | CNC(=O)c1cc(C)c(F)c(-c2cnc3cc(-c4cnn(C)c4)c(O[C@H]4CCOC4)nn23)c1 [Example 42, (S)-4-Fluoro-N,3-dimethyl-5-(7-(1-methyl-1H-pyrazol-4-yl)-6-((tetrahydrofuran-3-yl)oxy)imidazo[1,2-b]pyridazin-3-yl)benzamide] | – | – | < 0.01 µM
16 | CNC(=O)c1cc(F)c(F)c(-c2cnc3cc(-c4cnn(C)c4)c(O[C@H]4CCN(C)C4)nn23)c1 [Example 16, (S)-3,4-Difluoro-N-methyl-5-(7-(1-methyl-1H-pyrazol-4-yl)-6-((1-methylpyrrolidin-3-yl)oxy)imidazo[1,2-b]pyridazin-3-yl)benzamide] | ≥ 0.4 µM | ≥ 0.4 µM | –
17 | COc1nn2c(-c3cccc(NC(C)=O)c3)cnc2cc1-c1cnn(C)c1 [Example 10, N-(3-(6-Methoxy-7-(1-methyl-1H-pyrazol-4-yl)imidazo[1,2-b]pyridazin-3-yl)phenyl)acetamide] | < 0.01 µM | < 0.01 µM | –
18 | COc1nn2c(-c3cncc(C)c3)cnc2cc1-c1cnn(C)c1 [Example 3, 6-Methoxy-7-(1-methyl-1H-pyrazol-4-yl)-3-(5-methylpyridin-3-yl)imidazo[1,2-b]pyridazine] | ≥ 0.4 µM | 0.1 to 0.4 µM | –
19 | COc1nn2c(-c3cccc(CC#N)c3)cnc2cc1-c1cnn(C)c1 [Example 7, 2-(3-(6-Methoxy-7-(1-methyl-1H-pyrazol-4-yl)imidazo[1,2-b]pyridazin-3-yl)phenyl)acetonitrile] | 0.01 to 0.1 µM | 0.01 to 0.1 µM | –
20 | CNS(=O)(=O)c1cccc(-c2cnc3cc(-c4cnn(C)c4)c(OC)nn23)c1 [Example 8, 3-(6-Methoxy-7-(1-methyl-1H-pyrazol-4-yl)imidazo[1,2-b]pyridazin-3-yl)-N-methylbenzenesulfonamide] | < 0.01 µM | < 0.01 µM | –
21 | CNC(=O)c1cccc(-c2cnc3cc(-c4cnn(C)c4)c(O[C@H]4CCOC4)nn23)c1 [Example 63, (S)-N-Methyl-3-(7-(1-methyl-1H-pyrazol-4-yl)-6-((tetrahydrofuran-3-yl)oxy)imidazo[1,2-b]pyridazin-3-yl)benzamide] | – | – | < 0.01 µM
22 | CNC(=O)c1cncc(-c2cnc3cc(-c4cnn(C)c4)c(OC4COC4)nn23)c1 [Example 15, N-Methyl-5-(7-(1-methyl-1H-pyrazol-4-yl)-6-(oxetan-3-yloxy)imidazo[1,2-b]pyridazin-3-yl)nicotinamide] | 0.01 to 0.1 µM | < 0.01 µM | –
23 | Cc1cc(-c2cn(C)nn2)cc(-c2cnc3cc(-c4cnn(C)c4)c(O[C@H]4CCOC4)nn23)c1F [Example 39, (S)-3-(2-Fluoro-3-methyl-5-(1-methyl-1H-1,2,3-triazol-4-yl)phenyl)-7-(1-methyl-1H-pyrazol-4-yl)-6-((tetrahydrofuran-3-yl)oxy)imidazo[1,2-b]pyridazine] | ≥ 0.4 µM | 0.1 to 0.4 µM | –
24 | Cn1cc(-c2cc3ncc(-c4cccc(-n5cccn5)c4)n3nc2OC2COC2)cn1 [Example 61, 3-(3-(1H-Pyrazol-1-yl)phenyl)-7-(1-methyl-1H-pyrazol-4-yl)-6-(oxetan-3-yloxy)imidazo[1,2-b]pyridazine] | 0.01 to 0.1 µM | 0.01 to 0.1 µM | –
25 | CNC(=O)c1cc(-c2ccc(F)cc2F)cc(-c2cnc3cc(-c4cnn(C)c4)c(OC)nn23)c1 [Example 11, 2′,4′-Difluoro-5-(6-methoxy-7-(1-methyl-1H-pyrazol-4-yl)imidazo[1,2-b]pyridazin-3-yl)-N-methyl-[1,1′-biphenyl]-3-carboxamide] | 0.01 to 0.1 µM | < 0.01 µM | –
26 | Cn1cc(-c2cc3ncc(-c4ccc5oncc5c4)n3nc2OC2CCOC2)cn1 (stereo not drawn) [Example 66, 5-(7-(1-Methyl-1H-pyrazol-4-yl)-6-((tetrahydrofuran-3-yl)oxy)imidazo[1,2-b]pyridazin-3-yl)benzo[d]isoxazole] | 0.1 to 0.4 µM | 0.01 to 0.1 µM | –
27 | COc1nn2c(-c3ccc4ncccc4c3)cnc2cc1-c1cnn(C)c1 [Example 5, 6-(6-Methoxy-7-(1-methyl-1H-pyrazol-4-yl)imidazo[1,2-b]pyridazin-3-yl)quinoline] | 0.1 to 0.4 µM | 0.1 to 0.4 µM | –
28 | CNC(=O)c1cc(-c2cnc3cc(-c4cnn(C)c4)c(O[C@H]4CCOC4)nn23)c(F)c(C(F)F)c1 [Example 41, (S)-3-(Difluoromethyl)-4-fluoro-N-methyl-5-(7-(1-methyl-1H-pyrazol-4-yl)-6-((tetrahydrofuran-3-yl)oxy)imidazo[1,2-b]pyridazin-3-yl)benzamide] | – | – | < 0.01 µM
29 | CNC(=O)c1cncc(-c2cnc3cc(-c4cnn(C)c4)c(OC)nn23)c1 [Example 4, 5-(6-Methoxy-7-(1-methyl-1H-pyrazol-4-yl)imidazo[1,2-b]pyridazin-3-yl)-N-methylnicotinamide] | – | – | 0.1 to 0.4 µM
